According to publication PMC11829042, “Proteasomes accumulate in the plant apoplast where they participate in microbe-associated molecular pattern (MAMP)-triggered pathogen defense” (Nature Communications, 2025):

Columns and labels:
[1] = molecular target: T1, 20S proteasome core particle, PBE1(β5) subunit (chymotrypsin-like activity) (Arabidopsis thaliana, UniProt O23717); assay: Suc-LLVY-AMC cleavage in leaf lysate and APF, […]; format: cell-based
T1 construct: native proteasomes in leaf crude lysate and apoplastic fluid; with other subunits of the assembled 20S core particle
T1 sequence (O23717 58-274): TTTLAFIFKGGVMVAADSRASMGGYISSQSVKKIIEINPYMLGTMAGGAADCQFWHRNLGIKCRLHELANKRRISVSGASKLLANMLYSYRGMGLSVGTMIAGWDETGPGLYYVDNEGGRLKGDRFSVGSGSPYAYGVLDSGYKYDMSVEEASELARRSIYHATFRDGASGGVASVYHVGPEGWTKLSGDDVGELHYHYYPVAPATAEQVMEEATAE

[2] = molecular target: T2, 20S proteasome core particle, PBE1(β5) subunit (chymotrypsin-like activity) (Arabidopsis thaliana, UniProt O23717); assay: Suc-LLVY-AMC fluorogenic peptidase assay with […] SylA, affinity-purified proteasomes; format: biochemical
T2 construct: with other subunits of the assembled 20S core particle (PAG1(α7)-FLAG)
T2 sequence (O23717 58-274): T1 sequence (O23717 58-274)
T2 sequence (O23715 2-249 partner): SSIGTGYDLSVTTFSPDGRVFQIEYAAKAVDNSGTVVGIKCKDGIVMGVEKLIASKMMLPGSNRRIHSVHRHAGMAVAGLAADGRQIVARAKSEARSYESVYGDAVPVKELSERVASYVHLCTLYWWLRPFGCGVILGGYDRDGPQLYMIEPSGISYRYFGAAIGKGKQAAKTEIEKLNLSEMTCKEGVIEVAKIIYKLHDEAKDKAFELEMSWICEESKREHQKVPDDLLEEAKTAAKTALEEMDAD

Row | SMILES | Suc-LLVY-AMC cleavage in leaf lysate and APF, 50 μM [1] | Suc-LLVY-AMC fluorogenic peptidase assay with 50 or 150 μM SylA, affinity-purifi [2]
1 | CC(C)C[C@H](NC(=O)[C@H](Cc1ccccc1)NC(=O)c1cnccn1)B(O)O [BTZ, 1R-3-methyl-1-2S-3-phenyl-2-pyrazin-2-carbonylamino propanoyl amino butyl boronic acid] | Suc-LLVY-AMC breakdown in the CL was strongly suppressed by the well-characterized CP inhibitors bortezomib (BTZ), MG132 | 
2 | CC(C)[C@H](NC(=O)N[C@H](C(=O)N[C@H]1/C=C/CCNC(=O)/C=C/[C@H](C(C)C)NC1=O)C(C)C)C(=O)O [SylA, syringolin-A] |  | not only effectively inhibit the proteolytic activity of affinity-purified Arabidopsis proteasomes and those in the CL
